Experimental data: patent US11136296B2, “Substituted N-arylethyl-2-arylquinoline-4-carboxamides and use thereof” (Bayer Aktiengesellschaft, priority 2017, dated 2021)

Columns and labels:
FP receptor = FP receptor (Homo sapiens (Human), UniProt P43088); test: In vitro test of inhibition of human FP receptor activity (PGF2α-induced calcium flux in FP-expressing CHEM1 cells); type: cell-based; conditions: PGF2α-induced (2 nM) calcium flux in FP-expressing CHEM1 cells; some as mean values from multiple determinations
Chain of FP receptor (P43088 whole entry): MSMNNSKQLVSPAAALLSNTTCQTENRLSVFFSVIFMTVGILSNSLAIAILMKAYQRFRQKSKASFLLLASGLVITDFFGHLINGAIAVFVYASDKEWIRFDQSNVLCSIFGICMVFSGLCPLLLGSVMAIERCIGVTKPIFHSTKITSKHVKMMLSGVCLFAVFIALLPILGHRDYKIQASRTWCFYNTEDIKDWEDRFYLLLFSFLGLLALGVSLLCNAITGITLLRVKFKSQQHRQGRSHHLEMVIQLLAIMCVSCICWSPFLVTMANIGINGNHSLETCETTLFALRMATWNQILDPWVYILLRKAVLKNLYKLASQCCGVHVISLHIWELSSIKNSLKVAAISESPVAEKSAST
From the text: Table 1 below lists the IC50 values from this assay for individual working examples of the invention (some as mean values from multiple independent individual determinations): […]

[1] = test system: fluprostenol-induced mechanical sensitivity; test: Effects of FP antagonists on mechanical sensitivity (von Frey test, fluprostenol-induced mechanical allodynia); type: in vivo, mouse; conditions: for 50% Paw Response Threshold, mean: Ex. 153 90 mg/kg PO, male ND4 mice; for effect on 50% Paw Response Thresholds compared to vehicle-treated animals: group treated with […] fluprostenol, oral 90 mg/kg
Experimental: B-24. Effects of FP Antagonists on Mechanical Sensitivity (Peripheral, Mouse)
Mechanical allodynia was examined using the von Frey test on the injected and uninjected rear paws several times after the injection.
Mechanical allodynia was measured with […] (Stölting©; Wood Dale, Ill., USA) having different stiffness (0.04; 0.07; 0.16; 0.4; 1.0. 4.0 and 8.0 g) by the up-down method (Chaplan et al., J. Neurosci. Meth. 1994, 53, 56-63). Intact male ND4 mice (30 g, 10 animals per group) were placed in individual acrylic chambers on a metal grid surface, and were allowed to get used to their environment for at least 15 minutes before the testing. Each filament was pressed with sufficient force at right angles to the underside of the paw, in order to cause slight bending against the paw, and was held for about 6 seconds or until a positive response was registered (paw quickly withdrawn). The testing was commenced with the 0.4 g filament. If the paw was not withdrawn, the next strongest stimulus was used. In the case that the paw was withdrawn, the next weakest stimulus was used. This process was repeated until up to 4 responses had been obtained after the initial change in response (no response after positive response or positive response after no response). […] The 50% paw response threshold was calculated using the following formula:
[formula] • Xf=value (in logarithmic units) of the last von Frey filament used • k=table value for the pattern of positive/negative responses (see Chaplan et al., J. Neurosci. Meth. 1994, 53, 56-63, Annex 1, page 62) • δ=average difference (in logarithmic units) between the stimuli
The mean and […] of the mean (SEM) was determined for each paw for each treatment group at each time point.
In order to assess the analgesic effect of an FP antagonist on fluprostenol-induced mechanical sensitivity, the test substance from Ex. 153 (90 mg/kg) was administered 2 hours before and 8 and 22 hours after the injection of fluprostenol. Ipsilateral and contralateral 50% paw response thresholds were examined prior to the administration of fluprostenol and 0.5, 2, 6 and 24 h after the administration.

Compound: Cc1c(-c2ccccc2)nc2ccc(Br)cc2c1C(=O)NCC(CCC(=O)O)c1ccccc1Cl (single isomer, unassigned; (+)) [Ex. 153, (+)-5-{[(6-Bromo-3-methyl-2-phenylquinolin-4-yl)carbonyl]amino}-4-(2-chlorophenyl)pentanoic Acid]
- IC50 (FP receptor): 9 nM
- 50% Paw Response Threshold, mean ([1]; Group 2: fluprostenol ~[…] IPL, 0.5 h): 2.65 g
- 50% Paw Response Threshold, mean ([1]; Group 2: fluprostenol ~[…] IPL, 2 h): 2.403 g
- 50% Paw Response Threshold, mean ([1]; Group 2: fluprostenol ~[…] IPL, 6 h): 1.89 g
- 50% Paw Response Threshold, mean ([1]; Group 2: fluprostenol ~[…] IPL, 24 h): 3.245 g
- 50% Paw Response Threshold, mean ([1]; Group 2: fluprostenol ~[…] IPL, BL (baseline)): 4.421 g
- 50% Paw Response Threshold, mean ([1]; Group 4: fluprostenol ~[…] IPL, 0.5 h): 0.728 g
- 50% Paw Response Threshold, mean ([1]; Group 4: fluprostenol ~[…] IPL, 2 h): 0.716 g
- 50% Paw Response Threshold, mean ([1]; Group 4: fluprostenol ~[…] IPL, 6 h): 1.57 g
- 50% Paw Response Threshold, mean ([1]; Group 4: fluprostenol ~[…] IPL, 24 h): 1.683 g
- 50% Paw Response Threshold, mean ([1]; Group 4: fluprostenol ~[…] IPL, BL (baseline)): 4.215 g
- effect on 50% Paw Response Thresholds compared to vehicle-treated animals ([1]; 0.5 hours after the fluprostenol injection): increased the “50% Paw Response Thresholds” 0.5 hours after the fluprostenol injection significantly
- effect on 50% Paw Response Thresholds compared to vehicle-treated animals ([1]; 24 hours after the fluprostenol injection): increased the “50% Paw Response Thresholds” 24 hours after the fluprostenol injection significantly
